Source: US8952025B2, “Multifunctional radical quenchers and their uses” (Arizona Board of Regents, A Body Corporate of the State of …, priority 2010, dated 2015)
Entries after “also recorded” stand apart in the source; their conditions may differ. Where two headings read alike, the source gives them in different places.

Key:
FRDA fibroblasts = assay: Calcein-AM cell viability assay, BSO-treated FRDA fibroblasts; type: cell-based, human; conditions: for protection of FRDA fibroblasts from oxidative damage (cell viability): BSO-treated FRDA fibroblast; for EC50: BSO-treated FRDA fibroblasts, calcein-AM fluorescence, read-out: EC50 (effective concentration that prevents 50% of cell death)
Method: A cell viability assay using the dye calcein acetoxymethyl (AM) was used to determine the effects of invention compounds on GSH-mediated cell death in primary FRDA patient derived fibroblasts (Jauslin et al. (2002) Human Molecular Genetics. 11, 3055-3063) FRDA fibroblasts were treated with L-buthionine (S,R)-sulfoximine (BSO) to inhibit de novo synthesis of GSH (Griffith et al. (1979) J. Biol. Chem. 254, 7558-7560) causing oxidative stress, plasma membrane damage and cell death. Fibroblasts from Friedreich Ataxia patients, but not control cells, die after GSH depletion on incubation with BSO (Jauslin et al. (2002) Human Molecular Genetics. 11, 3055-3063). Cell viability was determined using calcein-AM (Molecular Probe, Eugene, Oreg.). In live cells, non-fluorescent calcein AM is hydrolyzed by intracellular esterases to produce the strongly green fluorescent anion calcein.
Cell culture and reagents: Primary fibroblasts were derived from a patient donor with a molecular diagnosis of FRDA and control donor with no mitochondrial disease. These cell lines were obtained from Coriell Cell Repositories (Camden, N.J., USA; catalog numbers GM04078 and GM08402, respectively). Fibroblasts were cultured in 64% (v/v) Eagle's Minimal Essential Medium (MEM), no phenol red with Eagle's balanced salt (EBS) and 25% M199 with EBS (GIBCO, Grand island, N.Y., USA) supplemented with 10% (v/v) Fetal Calf Serum (HyClone, South Logan, Utah, USA), 1% penicillin-streptomycin mix antibiotics (Cellgro, Manassan, Va., USA), 10 ng/mL insulin (Sigma, St. Louis, Mo., USA), 10 ng/mL basic fibroblast growth factor βFGF (Lonza, Walkersville, Md., USA) and 2 mM glutamine (HyClone, South Logan, Utah, USA). BSO (L-buthionine (S,R)-sulfoximine) and (+)-alpha-tocopherol were purchased from Sigma Chemicals and calcein AM was purchased from Molecular Probes. Cell were grown in 75 cm^2 culture flasks (T75) and incubated at 37° C. in a humidified atmosphere of 5% CO2 in air. Cells were fed twice a week and split every third day at a ratio of 1:3 upon reaching confluency. The invention compounds and reduced and oxidized forms of idebenone and alpha-tocopherol were reconstituted in DMSO or ethanol to provide 2.5 mM stock solutions.
Intervention compounds were screened according to the previous protocol (Jauslin et al. (2002) Human Molecular Genetics. 11, 3055-3063): Fibroblasts were seeded in 96 well microtiter black-walled cell culture plates (Costar, Corning, N.Y., USA) at a density of 3000 cells per well (100 μL). The plates were incubated overnight at 37° C. in a humidified atmosphere of 5% CO2 in air to allow attachment of the cells to the culture plate. Serial dilutions of intervention and references compounds were made from their respective stock solutions to give a total volume of 150 μL in each well. Plates were incubated overnight in cell culture. The following day, 50 μL of a 4 mM BSO solution (in culture media) was added to each well to provide a final BSO concentration of 1 mM. Cell viability was assessed after first signs of toxicity appeared in BSO-treated cells (typically after 24-30 hours) by examining cultures under phase-contrast microscopy. The cell culture medium was discarded by aspiration and each well of the cell culture plate washed with pre-warmed HSSB to remove serum esterase activity. Cells were then treated in with 200 μL of 1.2 μM calcein-AM in HSSB for 60 min at 37° C. in the dark to allow the dye to enter the cell and be cleaved by esterases. The negative control/background was 200 μL of HSSB buffer. Fluorescence intensities were measured with a Spectramax M5 spectrofluorometer (Molecular Devices, Sunnyvale, Calif., USA) using excitation and emission of 485 nm and 525 nm respectively. The intervention compounds were assayed in triplicate. […] The viability of non-BSO treated fibroblasts was set as 100%, and the viability of the BSO-treated and sample-treated cells was calculated relative to this value. […]

Human CEM leukemia cells = assay: Live/Dead Viability/Cytotoxicity flow cytometry assay; type: cell-based; conditions: overnight incubation, then DEM 3 hours
Method: Cell viability and cytotoxicity were determined by simultaneous staining live and dead cells using a two-color fluorescence assay, the Live/Dead® Viability/Cytotoxicity Kit (Molecular Probes). This assay is used to measure two recognized parameters of cell viability, intracellular esterase activity and plasma integrity. The membrane-impermeant DNA dye ethidium homodimer-1 (EthD-1) was used to identify dead cells whose plasma membrane integrity was disrupted. The membrane-permeant dye calcein-AM was used to label live cells. It penetrates into the cells where it is metabolized by cytoplasmic esterases and becomes a fluorescent but membrane-impermeant probe which is retained in viable cells. Human CEM leukemia cells were incubated overnight in RPMI medium (control) and in the presence of test compound and then treated with DEM for 3 hours. Cells were stained with 0.2 μM calcein-AM and 0.4 μM EthD-1. After 15 minutes, flow cytometry analysis was carried out using excitation at 488 nm. The green-fluorescent (539 nm) FL1-H channel, live-cell population appears in the lower right quadrant and the red-fluorescent (585 nm) FL2-H channel dead-cell population appears in the upper left quadrant (FIG. 11). In each analysis, 10,000 events were recorded. Results obtained were verified in three independent experiments.

Structure (SMILES)	protection of FRDA fibroblasts from oxidative damage (cell viability) (FRDA fibroblasts)	EC50 (FRDA fibroblasts; Homo sapiens, Fibroblast) [nM]	maintaining cell viability (Live/Dead kit, flow cytometry) (Human CEM leukemia cells)	EC50 (FRDA fibroblasts) [nM]
Cc1nc(N(C)C)nc(CCCCCCCCCCO)c1O [Compound A, 2-N,N-dimethylamino-5-hydroxy-4-methyl-6-(10-hydroxydecyl)-pyrimidine]	more effective than idebenone	390 ± 28		
Cc1nc2c(c(CC[C@](C)(O)CCC[C@H](C)CCC[C@H](C)CCCC(C)C)c1O)CCN2C [Compound C, 4-((3R,7R,11R)-3-hydroxy-3,7,11,15-tetramethylhexadecyl)-1,6-dimethyl-2,3-dihydro-1H-pyrrolo[2,3-b]pyridine-5-ol]	slightly more effective than α-tocopherol	833 ± 75	both effective in maintaining cell viability following treatment with DEM, with compound C being somewhat more effective; also recorded: superiority of compound C	
COC1=C(OC)C(=O)C(CCCCCCCCCCO)=C(C)C1=O [idebenone, reference compound]		710 ± 80		
Cc1c(C)c2c(c(C)c1O)CC[C@@](C)(CCC[C@H](C)CCC[C@H](C)CCCC(C)C)O2 [α-tocopherol, reference compound]			effective in maintaining cell viability following treatment with DEM	1030 ± 116
